Toxic doses and inconclusive results are not listed. Rule for the calls: active = survival T/C of 150% or more; inactive = T/C below 125% in these data.
Tested on: BDF1 mice, P388 leukemia ip, median survival T/C
Assay: NCI In Vivo Anticancer Drug Screen. Data for tumor model P388 Leukemia (intraperitoneal) in B6D2F1 (BDF1) mice
Conditions: endpoint: median survival time, higher = longer survival
Method in brief: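 Vehicle-dosed animals serve as the reference; survival of compound-dosed, tumour-implanted mice is divided by it.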

Measured: T/C

CCc1nc(N)nc(N)c1-c1ccc(Cl)cc1
inactive: dose: 2.0 mg/kg/injection, schedule: Q03HX008 (ip), vehicle: Klucel (hydroxypropylcellulose) (HPC) 100 % of control | dose: 2.0 mg/kg/injection, schedule: Q03HX016 (ip), vehicle: Klucel (hydroxypropylcellulose) (HPC) 91 % of control | dose: 2.0 mg/kg/injection, schedule: Q03HX024 (ip), vehicle: Klucel (hydroxypropylcellulose) (HPC) 91 % of control | dose: 4.0 mg/kg/injection, schedule: Q01DX009 (ip), vehicle: Klucel (hydroxypropylcellulose) (HPC) 95 % of control | dose: 4.0 mg/kg/injection, schedule: Q01DX009 (sc), vehicle: Klucel (hydroxypropylcellulose) (HPC) 100 % of control | dose: 4.0 mg/kg/injection, schedule: Q03HX008 (ip), vehicle: Klucel (hydroxypropylcellulose) (HPC) 95 % of control | dose: 4.0 mg/kg/injection, schedule: Q03HX016 (ip), vehicle: Klucel (hydroxypropylcellulose) (HPC) 100 % of control | dose: 4.0 mg/kg/injection, schedule: Q03HX024 (ip), vehicle: Klucel (hydroxypropylcellulose) (HPC) 91 % of control | dose: 8.0 mg/kg/injection, schedule: Q01DX009 (ip), vehicle: Klucel (hydroxypropylcellulose) (HPC) 91 % of control | dose: 8.0 mg/kg/injection, schedule: Q01DX009 (sc), vehicle: Klucel (hydroxypropylcellulose) (HPC) 100 % of control | dose: 8.0 mg/kg/injection, schedule: Q01DX010 (ip), vehicle: saline 100 % of control | dose: 8.0 mg/kg/injection, schedule: Q03HX008 (ip), vehicle: Klucel (hydroxypropylcellulose) (HPC) 100 % of control | dose: 8.0 mg/kg/injection, schedule: Q03HX016 (ip), vehicle: Klucel (hydroxypropylcellulose) (HPC) 91 % of control | dose: 8.0 mg/kg/injection, schedule: Q03HX024 (ip), vehicle: Klucel (hydroxypropylcellulose) (HPC) 95 % of control | dose: 16.0 mg/kg/injection, schedule: Q01DX001 (ip), vehicle: Klucel (hydroxypropylcellulose) (HPC) 100 % of control | dose: 16.0 mg/kg/injection, schedule: Q01DX001 (oral), vehicle: Klucel (hydroxypropylcellulose) (HPC) 100 % of control | dose: 16.0 mg/kg/injection, schedule: Q01DX001 (sc), vehicle: Klucel (hydroxypropylcellulose) (HPC) 100 % of control | dose: 16.0 mg/kg/injection, schedule: Q01DX009 (ip), vehicle: Klucel (hydroxypropylcellulose) (HPC) 91 % of control | dose: 16.0 mg/kg/injection, schedule: Q01DX009 (oral), vehicle: Klucel (hydroxypropylcellulose) (HPC) 104 % of control | dose: 16.0 mg/kg/injection, schedule: Q01DX009 (sc), vehicle: Klucel (hydroxypropylcellulose) (HPC) 100 % of control | dose: 16.0 mg/kg/injection, schedule: Q01DX010 (ip), vehicle: saline 95 % of control | dose: 16.0 mg/kg/injection, schedule: Q03HX008 (ip), vehicle: Klucel (hydroxypropylcellulose) (HPC) 91 % of control | dose: 16.0 mg/kg/injection, schedule: Q03HX016 (ip), vehicle: Klucel (hydroxypropylcellulose) (HPC) 100 % of control | dose: 16.0 mg/kg/injection, schedule: Q03HX024 (ip), vehicle: Klucel (hydroxypropylcellulose) (HPC) 100 % of control | dose: 16.0 mg/kg/injection, schedule: Q04DX003 (ip), vehicle: Klucel (hydroxypropylcellulose) (HPC) 100 % of control | dose: 16.0 mg/kg/injection, schedule: Q08DX002 (ip), vehicle: Klucel (hydroxypropylcellulose) (HPC) 100 % of control | dose: 32.0 mg/kg/injection, schedule: Q01DX001 (ip), vehicle: Klucel (hydroxypropylcellulose) (HPC) 100 % of control | dose: 32.0 mg/kg/injection, schedule: Q01DX001 (oral), vehicle: Klucel (hydroxypropylcellulose) (HPC) 90 % of control | dose: 32.0 mg/kg/injection, schedule: Q01DX001 (sc), vehicle: Klucel (hydroxypropylcellulose) (HPC) 104 % of control | dose: 32.0 mg/kg/injection, schedule: Q01DX009 (ip), vehicle: Klucel (hydroxypropylcellulose) (HPC) 95 % of control | dose: 32.0 mg/kg/injection, schedule: Q01DX009 (sc), vehicle: Klucel (hydroxypropylcellulose) (HPC) 100 % of control | dose: 32.0 mg/kg/injection, schedule: Q01DX010 (ip), vehicle: saline 90 % of control | dose: 32.0 mg/kg/injection, schedule: Q04DX003 (ip), vehicle: Klucel (hydroxypropylcellulose) (HPC) 100 % of control | dose: 32.0 mg/kg/injection, schedule: Q08DX002 (ip), vehicle: Klucel (hydroxypropylcellulose) (HPC) 95 % of control | dose: 64.0 mg/kg/injection, schedule: Q01DX001 (ip), vehicle: Klucel (hydroxypropylcellulose) (HPC) 100 % of control | dose: 64.0 mg/kg/injection, schedule: Q01DX001 (oral), vehicle: Klucel (hydroxypropylcellulose) (HPC) 104 % of control | dose: 64.0 mg/kg/injection, schedule: Q01DX001 (sc), vehicle: Klucel (hydroxypropylcellulose) (HPC) 109 % of control | dose: 64.0 mg/kg/injection, schedule: Q01DX009 (ip), vehicle: Klucel (hydroxypropylcellulose) (HPC) 116 % of control | dose: 64.0 mg/kg/injection, schedule: Q01DX009 (sc), vehicle: Klucel (hydroxypropylcellulose) (HPC) 113 % of control | dose: 64.0 mg/kg/injection, schedule: Q01DX010 (ip), vehicle: saline 90 % of control | dose: 64.0 mg/kg/injection, schedule: Q04DX003 (ip), vehicle: Klucel (hydroxypropylcellulose) (HPC) 100 % of control | dose: 64.0 mg/kg/injection, schedule: Q08DX002 (ip), vehicle: Klucel (hydroxypropylcellulose) (HPC) 91 % of control | dose: 128.0 mg/kg/injection, schedule: Q01DX001 (ip), vehicle: Klucel (hydroxypropylcellulose) (HPC) 100 % of control | dose: 128.0 mg/kg/injection, schedule: Q01DX001 (oral), vehicle: Klucel (hydroxypropylcellulose) (HPC) 100 % of control | dose: 128.0 mg/kg/injection, schedule: Q01DX001 (sc), vehicle: Klucel (hydroxypropylcellulose) (HPC) 100 % of control | dose: 128.0 mg/kg/injection, schedule: Q04DX003 (ip), vehicle: Klucel (hydroxypropylcellulose) (HPC) 100 % of control | dose: 128.0 mg/kg/injection, schedule: Q08DX002 (ip), vehicle: Klucel (hydroxypropylcellulose) (HPC) 100 % of control
